How the values were obtained:
[1] = test system: TROP2; experiment: Immunoblotting of TROP2 protein in breast cancer cell lines; format: cell-based, human
Protocol: (§1) Following treatments, cells were washed with cold PBS and lysed in 1× Laemmli buffer. The protein concentrations in the cell lysates were measured using Pierce BCA protein assay Kit (ThermoFisher). The same amount protein for each sample (20-50 μg/lane) was loaded to SDS-PAGE gel, followed by transferring proteins to a 0.2 μm nitrocellulose membrane (Bio-Rad Laboratories). Membranes were blocked with blocking buffer Blocker Casein in PBS (ThermoFisher) at room temperature for 1 hour, followed by immunoblotting with the primary antibodies in 5% BSA TBST buffer at room temperature overnight. After washing with TBST buffer, the immunoblotting membrane was then probed with the secondary antibodies with fluorescence conjugation. The immunoblots were visualized and the immunoblotting signal intensity quantitated using the Odyssey IR imaging system (Li-Cor Biosciences).
Five cell lines (BCX-011, BCX-010, Sum-159, BCX-010 transfected with control shRNA, and BCX-010 transfected with Zeb1 shRNA) were treated with decitabine (a DNA methyltransferase inhibitor) at 1 μM for 3 days (FIG. 1B). To knockdown Zeb1, BCX-010 cells were transduced with a lentivirus containing Zeb1 shRNA, followed by puromycin selection.
(§2) Breast cancer cell lines BCX-010CL, BCX-011CL, and SUM159 cells were treated with decitabine, azacytidine, panobinostat, vorinostat, tazemetostat at […] respectively for 3 days, followed by immunoblotting for E-cad and TROP2 with β-actin as control (FIG. 1D).
(§3) The treated cells were lysed. The cell lysate samples were loaded onto SDS-PAGE gel for the western blot. Antibodies ab-214488 and cst-3195 were used to detect TROP2 and E-cadherin respectively. β-actin was used as loading control (FIG. 1C).

[2] = test system: DNMT1, DNMT3A, and DNMT3B; experiment: Immunoblotting of DNA methyltransferases (DNMTs); format: cell-based, human; details: breast cancer cell lines
Protocol: as §1

[3] = test system: BCX-010, BCX-011 and Sum-159 cells; experiment: Annexin V flow cytometry apoptosis assay; format: cell-based, human; details: decitabine 1 μM and/or sacituzumab govitecan 0.1 μM, three days; FIGS. 5A-5D
Protocol: In order to determine the effect of decitabine and/or Zeb1 knockdown treatment on sacituzumab govitecan activity, apoptosis was measured in breast cancer cell lines. BCX-010 cells (FIG. 5A and FIG. 5B), BCX-011 cells (FIG. 5C) and Sum-159 cells (FIG. 5D) were seeded in 6-cm plates, then treated with decitabine (1 μM) and/or sacituzumab govitecan (0.1 μM) for three days in an apoptosis assay. After the three day treatment, cells were stained with Annexin V. Flow cytometry was performed to sort Annexin V positive cells (apoptotic cells) (FIGS. 5A-5D). Percentage of apoptotic cells was calculated by Annexin V positive cells over total cell populations.
Cells were seeded in 6 cm plates at a density of 3×10^5 cells per well in triplicates for each treatment group. The following day, cells were treated with decitabine and SG at 1 μM and 0.1 μM respectively, or their combination. […] Using Annexin-V-FLUOS Staining Kit (Roche), cells were stained with Annexin V fluorescence and propidium iodide (PI), following manufacturer's protocol. Samples were analyzed by flow cytometry. Percentage of Annexin V positive apoptotic cells were calculated.
In apoptosis assay, cells were treated with decitabine at 1 μM, SG at 0.1 μM, or their combination for 3 days. Annexin V positive apoptotic cells were measured by flow cytometry. Percentage of apoptotic cells over total cell populations was calculated (FIG. 7D).

[4] = test system: Sum-159 cells; experiment: Colony formation assay, Sum-159; format: cell-based, human; details: sacituzumab govitecan 200 nM, decitabine 200 nM
Protocol: FIGS. 6A-6E show a colony assay of BCX-010 (FIGS. 6A-6B), BCX-011 (FIG. 6C-6D), and Sum-159 cells ([…]) after treatment with vehicle, sacituzumab govitecan (200 nM), and/or decitabine (200 nM) for 10 days. FIGS. 6A-6C show agar plates after 10 days of colony formation.
In order to determine the effect of decitabine treatment on sacituzumab govitecan activity, colony formation assays were performed in BCX-010 cells (FIGS. 6A-6B), BCX-011 cells (FIG. 6C-6D), and Sum-159 breast cancer cells (FIG. 6E-6F).
Cells were seeded in 6-well plates at a density of 1000 cells per well in triplicates for each treatment group. Next day, cells were treated with single drugs, or combination at the different concentrations. Culture medium was changed with fresh drugs twice a week. Cells were cultured for 3 weeks. Cell colonies were then fixed in 10% formalin and stained with 0.05% crystal violet in 25% methanol. The stained colonies were imaged and total colony area was quantitated using NIH ImageJ v.1.48 software. Effect-based Combination Index (CI) was calculated by inhibition percentage of single drug and combination treatments using Bliss combination model. CI=((EA+EB)−(EA*EB))/EAB, where EA, EB, and EAB are effects of drug A, B and combination AB inhibition percentage. Here the effect is inhibition percentage of colony formation compared to vehicle controls. […]

[5] = test system: BCX-010 cells; experiment: Colony formation assay, BCX-010 control and Zeb1 knockdown; format: cell-based, human; details: BCX-010 control and Zeb1 knockdown cells; decitabine 5 nM, sacituzumab govitecan 20 nM, 14 days
Protocol: FIGS. 7A-7B show a colony assay of BCX-010 cells transfected with control shRNA (FIG. 7A) or Zeb1 shRNA (FIG. 7B) after treatment with vehicle, sacituzumab govitecan (20 nM), and/or decitabine (5 nM) for 14 days. After 14 days, cell colonies formed on the plates, were fixed with 10% formalin, and stained with 0.05% crystal violet. […] Annexin V positive apoptotic cells were measured by flow cytometry. Percentage of apoptotic cells over total cell populations was calculated.
In order to determine the effect of decitabine and/or Zeb1 knockdown treatment on sacituzumab govitecan activity, colony formation assays were performed in BCX-010 breast cancer cells. BCX-010 cells (control and Zeb1 knockdown) were seeded into 6-well plates at 1000 cells/well. Cells were treated with decitabine (5 nM) and/or sacituzumab govitecan ([…]) for 14 days. Culture medium with replaced with culture medium containing fresh drugs twice. After 14 days, cell colonies form on the plates were fixed with 10% formalin and stained with 0.05% crystal violet. Total colony area and colony number were quantified using ImageJ software.

[6] = test system: BCX-010CL and BCX-011CL cells; experiment: Cell survival assay of SG in TROP2-overexpressing cells; format: cell-based, human; details: serial dilutions, 3 days, FIG. 8B
Protocol: TROP2-overexpressing cells and control cells were treated with SG at concentrations in serial dilutions for 3 days. SG IC50 was calculated.
For TROP2 overexpression, breast cancer cells seeded in 6-well plates were transfected with TROP2 expression plasmid pCMV6-entry-TROP2 using Lipofectamine 3000 Kit. Two days after transfection, cells were treated with G-418 for 2-3 passages.
After G-418 selection, immunoblotting was performed to detect TROP2 expression (FIG. 8A). Next, TROP2-overexpressing cells and control cells were treated with SG at concentrations in serial dilutions for 3 days. SG IC50 was calculated (FIG. 8B).

[7] = test system: E-cadherin; experiment: Immunoblotting of E-cadherin in breast cancer cell lines; format: cell-based, human; details: BCX-010CL cells
Protocol: as §1, §2, §3

[8] = test system: SLFN11; experiment: Immunoblotting of SLFN11 in breast cancer cell lines; format: cell-based, human; details: BCX-010CL, HCC-1937, HCC-1143, MDA-MB-157; 1 μM for 3 days; FIG. 10A
Protocol: as §1

[9] = test system: TROP2 mRNA; experiment: Quantitative RT-PCR of TROP2 mRNA; format: cell-based, human; details: decitabine 1 μM, three days; BCX-010 (control or Zeb1 shRNA) and Sum-159 cells
Protocol: Following treatments, cells were lysed and total RNA was extracted using GeneJet RNA Purification Kit (ThermoFisher) according to manufacturer's manual. cDNA was synthesized from RNA using High-Capacity RNA-to-cDNA Kit (ThermoFisher) following manufacturer's manual. DNA amount in cDNA samples were quantitated using Qubity dsDNA Kit (ThermoFisher). Real time PCR was performed with the same amount DNA from each sample using TaqMan Universal PCR Master Mix Kit (ThermoFisher), under the PCR conditions: 50° C., 2 minutes; 95° C., 10 minutes; [95° C., 15 seconds, 60° C., 1 minutes]×35 cycles. Fold changes of mRNA expression levels were calculated using formula 2^rrCT (rrCT: cycle threshold of treatment group-cycle threshold of control group).
BCX-010 cells (FIG. 2A) and Sum-159 cells (FIG. 2B) were treated decitabine (1 μM), panobinostat (20 nM), or DMSO for three days. Total RNA was extracted from the treated cells using GeneJet RNA kit, followed by reverse transcription using High Capacity RNA-to-cDNA kit. cDNAs were quantitated using Qubit DNA kit. Quantitative real time PCR (qPCR) was performed using Taqman Universal PCR Master Mix kit with a TROP2 probe. Relative TROP2 levels were obtained by normalization with GAPDH. Additionally, BCX-010CL cells were treated with shRNA control or ZEB1 shRNA (FIG. 2C).

[10] = test system: TROP2; experiment: Immunocytochemistry of TROP2 in SUM159 cells; format: cell-based, human; details: 1 μM for 3 days
Protocol: SUM159 cells were treated with decitabine at 1 μM for 3 days. After cell fixation, cell pellet blocks were processed and probed with anti-TROP2 antibody, followed by hematoxylin staining.
After cell fixation, cell pellet blocks were processed and probed with anti-TROP2 antibody, followed by hematoxylin staining (FIG. 2D).
Formalin-fixed paraffin-embedded (FFPE) cell lines/tissue of 4-micron thickness slides were baked at 60° C. for 1 hour. IHC staining was performed using Leica BondRXm autostainer (Leica Biosystems) for further processing. In brief, after deparaffinized by bond dewax solution, epitope retrieval (HIER) was performed with citrate buffer pH6, followed by washing steps. After peroxidase blocking (3% H2O2) for 20 minutes, slides were incubated in TROP2 rabbit monoclonal [EPR20043], catalog #ab214488 with a 1:2000 dilution for 15 minutes at ambient temperature. After transient washing, post-primary and polymer incubation for 8 min, followed by hematoxylin staining and wash steps. Afterwards, the slides were unloaded from autostainer, air dried and cover slipped with mounting media (Cytoseal XYL mounting media).

[11] = test system: BCX-010CL cells; experiment: Cell survival assay of SN-38 with or without decitabine; format: cell-based, human; details: decitabine co-treatment, 3 days, FIG. 10B
Protocol: BCX-010CL cells were treated with SN-38 at serial dilutions, with or without decitabine co-treatment for 3 days. IC50s of individual agents and combination index were calculated.
BCX-010CL cells were also treated with SN-38 at serial dilutions, with or without decitabine co-treatment for 3 days. IC50s of individual agents and combination index were calculated.

[12] = test system: BCX-010CL, HCC-1954, HCC-1143, and MDA-MB-157 cells; experiment: Cell survival assay of Sacituzumab govitecan with or without decitabine; format: cell-based, human; details: HCC-1954, HCC-1143, MDA-MB-157, decitabine co-treatment, 3 days, FIG. 10C
Protocol: BCX-010CL, HCC-1954, HCC-1143, and MDA-MB-157 cells were treated with Sacituzumab govitecan at serial dilutions, with or without decitabine co-treatment for 3 days. IC50s of individual agents and combination index were calculated.
Finally, BCX-010CL, HCC-1954, HCC-1143, and MDA-MB-157 cells were treated with Sacituzumab govitecan at serial dilutions, with or without decitabine co-treatment for 3 days. IC50s of individual agents and combination index were calculated.

[13] = test system: TROP2 promoter; experiment: Methylation-specific PCR of TROP2 promoter CpG region; details: BCX-010 cells; decitabine 1 μM; FIG. 3A
Protocol: Genomic DNA was extracted from BCX-010CL and BCX-011CL cells treated decitabine at 1 μM for 3 days, or from ZEB1 knockdown cells, and then subjected bisulfite CT conversion, followed by MSP using methylation specific primers specific to a CpG region in the TROP2 promoter. GAPDH was used as a control.
Following treatments, cells were lysed and genomic DNA (gDNA) was extracted using Genomic DNA Purification Kit (ThermoFisher) according to manufacturer's manual. Bisulfite CT conversion of quantitated gDNA was performed using EZ DNA Methylation Kit (Zymo Research) following manufacturer's manual. MSP of TROP2 promoter CpG region was performed using a methylation forward primer, a methylation reverse primer, an un-methylated forward primer, and an un-methylated reverse primer. PCR condition was set up as following: 94° C., 1 minute; [94° C., 30 seconds, 62° C., 30 seconds, 72° C., 45 seconds]×40 cycles; 72° C., 2 minutes, 4° C. About 200 bp PCR product was separated by 2% agarose gel.

[14] = target: T1, TROP2 (Trophoblast cell surface antigen 2) (human, UniProt P09758 27-323); experiment: immunofluorescence microscopy, SG-Alexa-488 at 2 ug/ml on BCX cells overexpressing TROP2; signal similar to that on MDA-MB-468 cells with high endogenous TROP2
T1 construct: whole, on cells; also called TACSTD2; tumor-associated calcium signal transducer 2
T1 sequence (looked up): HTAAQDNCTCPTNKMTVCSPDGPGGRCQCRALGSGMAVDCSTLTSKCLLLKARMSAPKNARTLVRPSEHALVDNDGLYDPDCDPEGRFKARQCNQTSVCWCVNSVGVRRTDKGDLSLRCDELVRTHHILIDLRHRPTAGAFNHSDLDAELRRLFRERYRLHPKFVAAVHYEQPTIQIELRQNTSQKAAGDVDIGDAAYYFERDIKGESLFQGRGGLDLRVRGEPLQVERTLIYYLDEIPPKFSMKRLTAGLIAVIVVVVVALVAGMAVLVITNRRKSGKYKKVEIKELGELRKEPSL

[15] = test system: TROP2 overexpressing cells; experiment: Immunofluorescence of ADC binding on cell membrane; format: cell-based, human; details: 2 μg/ml, 2 hours, room temperature; FIG. 12A
Protocol: ADC drug SG was labeled with alexa fluorescent dye using Alexa Fluo 488 Conjugation Lightening Kit (Abcam, #ab236553), following the manufactory protocol. Final SG-Alexa-488 concentration was 1 μg/μl. To bind ADC to cells, cells were seeded on cover slices in 6-well plates overnight, followed by blocking with 3% BSA/PBS at room temperature for 1 hour. Then cells were incubated with SG-Alexa-488 at 2 μg/ml at room temperature for 2 hours, followed by PBS wash twice. For internalization assay, SG-Alexa-488 was added into the culture medium in the wells at 2 μg/ml for 10 min, 3 hours, and 24 hours. Cells were fixed with 4% paraformaldehyde at room temperature for 15 min, PBS wash twice. The cover slices were mounted onto slide with DAPI counterstaining. Fluorescence on cell surface and in cytoplasm was monitored using Olympus BX51 fluorescent microscope and imaged using Nuance imaging system.

[16] = target: T1, TROP2 (Trophoblast cell surface antigen …); experiment: conclusion drawn from the examples' data (immunofluorescence, cell assays)

Molecule: CCc1c(C#N)c(SC(C(N)=O)c2ccccc2)nc(N2CCC(N)CC2)c1C#N (centres unmarked) [GSK-3685032]
- TROP2 expression (DNMT1 specific inhibitor) ([1]; breast cancer cell lines): did not upregulate TROP2 expression
- DNMT1 protein levels [2]: decreased DNMT1 protein levels

Molecule: sacituzumab govitecan
- apoptosis (Annexin V positive cells) [3]: induced cell apoptosis in BCX-010 and Sum-159 cells
- colony formation [4]: inhibited cell colony formation in Sum-159 cells
- colony formation [5]: inhibited cell colony formation
- cell sensitivity to SG (IC50) in TROP2-overexpressing vs control cells [6]: Overexpression of TROP2 sensitizes cells

Molecule: Nc1ncn([C@H]2C[C@H](O)[C@@H](CO)O2)c(=O)n1 [decitabine, 5-Aza-2′-deoxycytidine]
- TROP2 protein expression ([1]; 1 μM for 3 days, BCX-011, BCX-010, Sum-159, BCX-010 control shRNA, BCX-010 Zeb1 shRNA, FIG. 1B): increased TROP2 protein expression in all 5 cell lines
- TROP2 expression, panel of epigenetic modulators (immunoblot) ([1]; BCX-010CL, BCX-011CL, SUM159 cells, 3 days, FIG. 1D): most effective enhancer of TROP2 expression
- E-cadherin expression [7]: increased E-cadherin expression
- SLFN11 expression (immunoblot) [8]: increases SLFN11 expression
- TROP2 mRNA expression (qPCR, normalized with GAPDH) [9]: increased TROP2 mRNA expression in all cell lines
- TROP2 expression (immunocytochemistry) [10]: increases TROP2 expression in SUM159 cells
- protein levels of DNMT1, DNMT3A, and DNMT3B ([2]; 1 μM for 3 days, FIG. 3B): decreased protein levels of three DNMT isoforms
- apoptosis (Annexin V positive cells) [3]: induced cell apoptosis in BCX-010 and Sum-159 cells
- colony formation [4]: inhibited cell colony formation in Sum-159 cells
- colony formation [5]: inhibited cell colony formation
- sensitization of cells to SN-38 (cell survival) [11]: sensitizes cells to SN-38 in BCX-010CL cells
- sensitization of cells to Sacituzumab govitecan (cell survival) [12]: sensitizes cells to Sacituzumab govitecan in breast cancer cell lines
- TROP2 promoter methylation (MSP) [13]: decreased TROP2 promoter methylation

B1: sacituzumab govitecan-Alexa-488 (antibody, V domains shown)
VH: QVQLQQSGSELKKPGASVKVSCKASGYTFTNYGMNWVKQAPGQGLKWMGWINTYTGEPTYTDDFKGRFAFSLDTSVSTAYLQISSLKADDTAVYFCARGGFGSSYWYFDVWGQGSLVTVSS
VL: DIQLTQSPSSLSASVGDRVSITCKASQDVSIAVAWYQQKPGKAPKLLIYSASYRYTGVPDRFSGSGSGTDFTLTISSLQPEDFAVYYCQQHYITPLTFGAGTKVEIK
modifications: conjugated to SN-38 (antibody drug conjugate) and labelled with Alexa Fluor 488; sites not stated
- binding result [14]: binds

B2: SG ADC labeled with Alexa-Fluo-488 (conjugate)
VH: B1 VH
VL: B1 VL
- immunofluorescent signal on cell membrane, TROP2-overexpressing cells [15]: strong immunofluorescent signal on cell membrane
- immunofluorescent signal on cell membrane, control cells [15]: negative signal

B3: sacituzumab govitecan (antibody, V domains shown)
VH: B1 VH
VL: B1 VL
modifications: conjugated to SN-38 (antibody drug conjugate); sites not stated
notes: also called SG; Trodelvy
- binding result [16]: binds
